Test results as given in patent publication US20240091203A1, “METHODS FOR TREATING NON-OBSTRUCTIVE HYPERTROPHIC CARDIOMYOPATHY” (Cytokinetics, Incorporated, priority 2022, published 2024).
Entries after “also recorded” stand apart in the source; their conditions may differ. Like-named read-outs stand apart in the source and are kept apart here.

Experiments:
[1] = test system: patients with symptomatic non-obstructive HCM (nHCM) or HCM with MVO; assay: Phase 2 trial (Example 2): safety and tolerability; settings: for Patients with fatal TEAEs: not related
From the text: The study excluded patients receiving disopyramide. […] Overall, the treatment duration was 10 weeks with a 4-week follow-up period after the last dose.
Patients were eligible to be included in the study only if all the following criteria apply: 1. Able to comprehend and willing to sign an informed consent form (ICF) and willing to comply with all study procedures and restrictions for the duration; 2. Males and females between 18 and 85 years of age at screening; 3. Body weight is ≥45 kg at screening; 4. Diagnosed with HCM per the following criteria: (a) has LV hypertrophy and non-dilated LV chamber in the absence of other cardiac disease; and (b) has minimal wall thickness ≥15 mm (minimal wall thickness ≥13 mm is acceptable with a positive family history of HCM or with a known disease-causing gene mutation); 5. Adequate acoustic windows for echocardiography; 7. Left ventricular ejection fraction (LVEF) ≥60% at screening; 8. New York Heart Association (NYHA) Class II or III at screening; 9. Patients on beta-blockers, verapamil, diltiazem, or ranolazine should have been on stable doses for ≥4 weeks and anticipate remaining on the same medication regimen during the study; 10. […] Able to complete all screening procedures.
Patients were excluded from the study if any of the following criteria applied: 1. Aortic stenosis or fixed subaortic obstruction; 2. Known infiltrative or storage disorder causing cardiac hypertrophy that mimics HCM (e.g., Noonan syndrome, Fabry disease, amyloidosis); 3. […] Documented history of current obstructive coronary artery disease (>70% stenosis in one or more epicardial coronary arteries) or documented history of myocardial infarction; 6. […] Has any ECG abnormality considered by the investigator to pose a risk to patient safety (e.g., second degree atrioventricular block type II); 9. Paroxysmal atrial fibrillation or flutter documented during the screening period; 10. […] Currently participating in another investigational device or drug study or received an investigational device or drug <1 month (or 5 half-lives for drugs, whichever is longer) prior to screening; 20.
Each patient received Dose 1 once daily for 2 weeks. […] Otherwise, the patient remained on Dose 1. If LVEF was <50% at Week 2, treatment was discontinued.
Otherwise, the patient remained on the same dose. If LVEF was <50% at Week 4, the patient returned to a prior dose level or treatment was discontinued if the patient was on Dose 1.
If LVEF was <50% at Week 6, the patient was down-titrated to a prior dose level or discontinued if the patient was on Dose 1.
Primary safety endpoints were: (i) patient incidence of reported AEs from first dose up to safety follow-up; (ii) patient incidence of reported SAEs from first dose up to safety follow-up; (iii) patient incidence of LVEF <50% from first dose up to safety follow-up.
Safety follow-up was defined as 4 weeks following the last dose.

[2] = Phase 1 plasma pharmacokinetics, food-effect cohort; type: in vivo, human; settings: 10 mg; for AUCinf / AUC24 / Cmax: geometric mean; for CL/F / t1/2: mean ± SD
Protocol: (§1) Food-effect cohort. […] Participants were randomized in a 1:1 ratio to 1 of 2 sequences: fasted/fed or fed/fasted.
Pharmacokinetic analyses. For all study groups, blood samples for PK assessment were obtained pre-dose, up to 12 times daily on day 1, and then at regular intervals throughout the study. Blood samples were collected according to the following schedule: SAD Cohorts: Day 1: pre-dose and 0.25, 0.5, 1, 1.5, 2, 2.5, 3, 4, 6, 8, 12, 16, 24, 36, 48, 72, 96, and 216 h post dose. […] CYPD6-PM Cohort: Day 1: pre-dose and 0.25, 0.5, 1, 1.5, 2, 2.5, 3, 4, 6, 8, 12, 16, 24, 36, 48, 72, 96, 216, 312, and 552 h post dose. Food-Effect Cohort: Day 1: pre-dose and 0.25, 0.5, 1, 1.5, 2, 2.5, 3, 4, 6, 8, 12, 16, 24, 36, 48, 72, 96, 144, and 216 h post dose. Standard non-compartmental methods were used to calculate PK parameters using Phoenix® WinNonlin® Version 7.0; actual sample collection times were utilized.

healthy adults = test system: healthy adults; design: species or system human; settings: in vivo
From the text: Study Overview and Ethics. The study used a randomized, placebo-controlled, single-ascending dose (SAD) and multiple-ascending dose (MAD) design (FIG. 2). […] Dose escalation was to be stopped when this range was achieved, or when a non-tolerated dose was identified, if earlier.
Participants and Treatments. To be eligible for this study, participants were to be healthy adults aged 18 to 55 years, with body mass index of 18.0 to 32.0 kg/m^2, normal electrocardiogram (ECG) and clinical laboratory values, or only minor abnormalities that were deemed not clinically significant. Participants also had to have normal cardiac structure and function, with LVEF ≥60% for the first 4 SAD cohorts, ≥65% for subsequent SAD cohorts, all MAD cohorts, and the food-effect cohort, and ≥55% for the CYP2D6-PM cohort. Before the study, participants were not allowed to use any prescription medication within 14 days, over-the-counter medication within 7 days (except acetaminophen), or tobacco or nicotine within 3 months; in addition, they were not permitted to consume alcohol, caffeine, or grapefruit within 48 h before study check-in.
A randomization schedule was centrally generated for each cohort and treatment period. […] Study drug was administered following an overnight fast, except during the fed period in the food-effect cohort.
Single-ascending dose (SAD) cohorts. The SAD portion of the study used a randomized, double-blind, placebo-controlled, sequential, escalating-dose design, in which participants received single-ascending oral doses of the study drug. Seven cohorts were dosed in sequence (FIG. 2).
Recommendations regarding dose escalation in the SAD cohorts—and in the MAD cohorts described below—were made by the treating investigator (who was blinded to treatment group) and endorsed or not by the Dose Level Review Committee (DLRC), who were unblinded. […] Criteria for escalation included that no more than 2 participants in a dose group developed an LVEF <50% and no individual developed an LVEF <45%.
Multiple-ascending dose (MAD) cohorts. The MAD cohorts also used a randomized, double-blind, placebo-controlled, sequential design.
CYP2D6 genotypes were determined at screening for all study participants; those identified as CYP2D6-PMs were excluded from the SAD and MAD cohorts but were invited to participate in the CYP2D6-PM cohort. The first individual in the CYP2D6-PM cohort was dosed after the SAD 25-mg cohort (FIG. 2). […] Nine participants were randomized (7:2) with a sentinel dosing group consisting of the first 2 participants treated.
as §1
Safety and tolerability. Safety was assessed by the incidence of adverse events (AEs) and by incidence of reduced LVEF. Treatment-emergent AEs (TEAE) were defined as AEs that began or increased after study drug administration. All AEs were coded using the Medical Dictionary for Regulatory Activities version 21.1 and graded using the National Cancer Institute Common Terminology Criteria for AEs (version 4.03) 5-point severity scale. Each AE was judged as either related or unrelated to the study drug by the treating investigator. Clinical laboratory tests were obtained at regular intervals in all cohorts.
For safety monitoring, participants in all cohorts had periodic echocardiograms, which were assessed by a cardiologist. In the SAD and MAD cohorts, echocardiograms were also reviewed by an echocardiography core laboratory for PD assessments, as described below. In addition, participants in all cohorts were monitored with continuous 12-lead ECG recording using Holter monitors. For safety monitoring, a single 12-lead ECG was extracted at screening, pre-dose, and periodically throughout follow-up, and interpreted by the investigator. […]

[3] = number of patients, N = 41, interim
[4] = food-effect cohort, Fasted, n = 4
[5] = food-effect cohort, Fasted, n = 10
[6] = food-effect cohort, Fed, n = 12

In the case of `CCc1nc(-c2ccc3c(c2)CC[C@H]3NC(=O)c2cnn(C)c2)no1` [aficamten, (R)—N-(5-(5-ethyl-1,2,4-oxadiazol-3-yl)-2,3-dihydro-1H-inden-1-yl)-1-methyl-1H-pyrazole-4-carboxamide], the “patients who experienced SAEs” value ([1]; 4 of 41 patients including one death, second interim) is reported as 9.8%, the overall tolerability ([1]; 10 weeks, nHCM patients) is reported as “well-tolerated overall” and the “patients with LVEF <50%” value ([1]; Week 10 (EOT), 3 of 41 patients) is reported as 7.3%. The “recovery of LVEF in patients with LVEF <50%” value ([1]; by Week 12 (2 weeks' washout)) was “All 3 patients returned to baseline LVEF; also recorded: All LVEF returned to normal”, the “AEs of heart failure” value ([1]; interim) was “No AEs of heart failure” and the “drug discontinuations due to AE” value ([1]; interim) was “no drug discontinuations”. The “relatedness of SAEs (bronchitis, new onset atrial fibrillation, cardiac arrest) per Investigator” value ([1]; interim) was “None of these were deemed related to aficamten”, the “Patients reporting at least one TEAE” value [1, 3] was 27 and the “Patients with AEs related to study drug (per Investigator)” value [1, 3] was 4. The “Patients with Moderate TEAEs” value [1, 3] was 14, the “Patients with Severe TEAEs” value [1, 3] was 3 and the “Patients with fatal TEAEs” value [1, 3] was 1. The “Patients with AEs related to study drug (per Investigator)” value ([1]; percent of N = 41, interim) was “(9.8) %”, the “Patients with Moderate TEAEs” value ([1]; percent of N = 41, interim) was “(34) %” and the “Patients with Severe TEAEs” value ([1]; percent of N = 41, interim) was “(7.3) %”. For the same compound, the “Patients with TESAEs” value ([1]; percent of N = 41, interim) was “(7.3) %”, the “Patients with fatal TEAEs” value ([1]; percent of N = 41, interim) was “(2.4) not related %” and the “attribution of SAEs” value ([1]; second interim) was “None of the SAEs were attributed to aficamten”. For the same compound, the “events with LVEF <40%” value ([1]; second interim) was “no events with LVEF <40%; also recorded: No LVEF <40% occurred”, the “treatment interruptions or down-titration events related to LVEF <50%” value ([1]; second interim) was “no treatment interruptions or down-titration events” and the “patients with dose reduction to 10 mg for AE fatigue” value ([1]; week 9, interim) was “One patient”. The “LVEF <50% during the titration period” value ([1]; weeks 0-6, interim) was “no LVEF were less than 50%”, the “effect of food on pharmacokinetics” value ([2]; fed (high-fat breakfast) versus fasted) was “Neither food nor CYP2D6-PM phenotype had a clinically meaningful impact; also recorded: little effect on AUC; also recorded: no significant effect of food” and the “increase in Cmax when taken with food” value ([2]; fed versus fasted) was “approximately 30%”. For the same compound, the AUCinf [2, 4] was 3674 ng·h/mL, the AUC24 [2, 5] was 601 (33) ng · h/ml and the Cmax [2, 5] was 50.6 ng/mL. It also gave a CL/F [2, 4] of 2.8 ± 0.6 L/h, a t1/2 [2, 4] of 84.4 ± 16.4 h and a Tmax ([2]; food-effect cohort, Fasted, median, n = 10) of 2.3 h. For the same compound, the AUCinf ([2]; food-effect cohort, Fed, n = 7) was 3413 ng·h/mL, the AUC24 [2, 6] was 631 (25) ng · h/ml and the Cmax [2, 6] was 65.0 ng/mL. For the same compound, the CL/F ([2]; food-effect cohort, Fed, n = 7) was 3.1 ± 0.9 L/h, the t1/2 ([2]; food-effect cohort, Fed, n = 7) was 78.0 ± 8.1 h and the “Echocardiogram-related AE of decreased ejection fraction <45%: Onset (time after drug dose)” value (healthy adults; female, human) was 1.4 h. The QTcF (healthy adults; human) was at most 450 ms, the “increase in QTcF interval” value (healthy adults; human) was at most 30 ms and the “participants with echocardiogram-related AEs of decreased ejection fraction <45%” value (healthy adults; human) was 3 participants. For the same compound, the “time to resolution of echocardiogram-related AEs of decreased ejection fraction” value (healthy adults; human) was 2.5 to 4.6 h, the “LVEF of 1 participant after cohort expansion” value (healthy adults) was under 45% and the “decrease in LVEF of 1 participant after cohort expansion” value (healthy adults) was over 15%. The “discontinuation of the study due to AEs” value (healthy adults) was “no participants discontinued”, the “mean safety ECG parameters” value (healthy adults) was “within normal limits” and the “post-dose LVEF of sentinel participant” value (healthy adults) was under 45%. For the same compound, the “post-dose LVEF of the participant with LVEF <50%” value (healthy adults) was 46.2%, the “serum chemistry, hematology, or urinalysis findings” value (healthy adults) was “No clinically significant” and the vital signs (healthy adults) was “within normal limits”. The “Echocardiogram-related AE of decreased ejection fraction <45%: Onset (time after drug dose)” value (healthy adults; male, human) was 1.5 h.
